# Assay results as given in patent publication US20250243180A1, “TARGETED PROTEIN DEGRADATION” (Monte Rosa Therapeutics AG, priority 2023, published 2025).
# Where a name gives a salt, the structure may show the parent alone. Read-outs that look alike come from different tables or passages of the source.
# Legend:
# CRBN-DDB1 = CRBN-DDB1 (Homo sapiens (Human), UniProt Q96SW2); test: Compound binding to CRBN by HTRF assay
# Method in brief: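 Ki calculated via Cheng-Prusoff from geometric-mean EC50 values, after normalizing the HTRF ratio to lenalidomide (active) and DMSO (neutral) controls. Compounds (11 points, 1:3 steps) incubated 30 min at ambient temperature with CRBN-DDB1 2.5 nM, anti-His Tb cryptate and Cy5-thalidomide tracer 100 nM.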
# NEK7 = NEK7 (Homo sapiens (Human), UniProt Q8TDX7+Q96SW2); test: NEK7 NanoBiT degradation assay in Cal51 NEK7 NanoBiT cell line; type: cell-based; details: Cal51 NEK7 NanoBiT cells, 24 hours; for Dmax: CAL-51
# Method in brief: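 EC50 comes from a 4-parameter fit of control-normalized luminescence. The luminescence reports HiBiT-NEK7 (endogenous knock-in) complemented by stably expressed LgBiT in Cal51 cells after 24 h compound exposure at 37 °C. Final concentrations ran 1 μM to 0.05 nM, with Endurazine substrate present in the medium throughout.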
# [1] = NEK7 degradation, read-out: NanoBiT Dmax
# [2] = NEK7 degradation, read-out: NanoBiT DC50
# CRBN-DDB1, sequence (Q96SW2 whole entry): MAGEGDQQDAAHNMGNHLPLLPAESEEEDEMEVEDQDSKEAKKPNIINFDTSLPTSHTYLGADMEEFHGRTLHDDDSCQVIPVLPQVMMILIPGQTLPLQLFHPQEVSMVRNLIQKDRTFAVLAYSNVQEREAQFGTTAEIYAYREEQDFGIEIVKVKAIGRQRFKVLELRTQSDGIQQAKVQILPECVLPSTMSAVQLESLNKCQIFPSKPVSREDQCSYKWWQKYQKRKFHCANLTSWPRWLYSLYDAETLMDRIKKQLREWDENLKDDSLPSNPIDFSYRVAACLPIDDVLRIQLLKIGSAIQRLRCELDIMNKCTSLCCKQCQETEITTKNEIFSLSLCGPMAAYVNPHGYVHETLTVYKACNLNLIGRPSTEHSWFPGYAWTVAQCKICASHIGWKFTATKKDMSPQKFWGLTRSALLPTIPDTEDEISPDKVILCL
# CRBN-DDB1, sequence (Q16531 whole entry partner): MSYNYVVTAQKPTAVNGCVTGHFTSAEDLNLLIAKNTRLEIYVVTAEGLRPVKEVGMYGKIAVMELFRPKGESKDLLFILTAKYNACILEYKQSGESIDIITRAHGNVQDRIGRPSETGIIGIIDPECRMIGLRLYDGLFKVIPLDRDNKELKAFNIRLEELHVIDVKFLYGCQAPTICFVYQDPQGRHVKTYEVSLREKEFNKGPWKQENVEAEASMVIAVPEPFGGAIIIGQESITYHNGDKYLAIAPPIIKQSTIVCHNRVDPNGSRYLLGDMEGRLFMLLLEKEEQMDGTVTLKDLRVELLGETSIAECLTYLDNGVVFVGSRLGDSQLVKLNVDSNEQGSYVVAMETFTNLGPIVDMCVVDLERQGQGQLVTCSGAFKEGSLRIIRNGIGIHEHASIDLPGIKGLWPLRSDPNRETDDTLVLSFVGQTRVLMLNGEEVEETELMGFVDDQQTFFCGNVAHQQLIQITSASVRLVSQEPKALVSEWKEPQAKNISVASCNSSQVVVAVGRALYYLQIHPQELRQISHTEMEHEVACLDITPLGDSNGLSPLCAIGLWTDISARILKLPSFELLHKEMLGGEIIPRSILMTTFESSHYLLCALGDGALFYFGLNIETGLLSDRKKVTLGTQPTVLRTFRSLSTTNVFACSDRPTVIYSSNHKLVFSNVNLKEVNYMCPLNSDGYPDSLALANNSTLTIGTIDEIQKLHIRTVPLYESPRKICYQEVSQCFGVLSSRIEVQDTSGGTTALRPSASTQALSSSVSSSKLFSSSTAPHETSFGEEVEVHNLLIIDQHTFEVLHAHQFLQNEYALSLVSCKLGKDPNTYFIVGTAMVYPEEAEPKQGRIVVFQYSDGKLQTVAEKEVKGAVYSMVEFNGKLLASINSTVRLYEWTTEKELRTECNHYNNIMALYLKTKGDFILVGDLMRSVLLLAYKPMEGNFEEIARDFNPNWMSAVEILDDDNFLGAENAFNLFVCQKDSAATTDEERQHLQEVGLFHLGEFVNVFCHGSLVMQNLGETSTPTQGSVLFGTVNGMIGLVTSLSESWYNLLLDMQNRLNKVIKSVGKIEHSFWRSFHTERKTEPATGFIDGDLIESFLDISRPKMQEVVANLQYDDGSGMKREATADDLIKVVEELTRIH
# NEK7, sequence (Q8TDX7 whole entry): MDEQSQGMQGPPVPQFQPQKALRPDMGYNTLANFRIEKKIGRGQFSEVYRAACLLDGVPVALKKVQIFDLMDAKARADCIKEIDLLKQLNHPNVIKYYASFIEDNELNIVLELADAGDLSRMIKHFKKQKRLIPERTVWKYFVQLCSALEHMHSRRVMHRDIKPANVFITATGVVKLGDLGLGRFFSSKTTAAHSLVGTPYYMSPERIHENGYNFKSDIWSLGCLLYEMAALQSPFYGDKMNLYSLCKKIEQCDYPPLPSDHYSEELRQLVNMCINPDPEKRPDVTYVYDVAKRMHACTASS
# NEK7, sequence (Q96SW2 whole entry): as the sequence (Q96SW2 whole entry) above
# NEK7, sequence (Q16531 2-1140 partner): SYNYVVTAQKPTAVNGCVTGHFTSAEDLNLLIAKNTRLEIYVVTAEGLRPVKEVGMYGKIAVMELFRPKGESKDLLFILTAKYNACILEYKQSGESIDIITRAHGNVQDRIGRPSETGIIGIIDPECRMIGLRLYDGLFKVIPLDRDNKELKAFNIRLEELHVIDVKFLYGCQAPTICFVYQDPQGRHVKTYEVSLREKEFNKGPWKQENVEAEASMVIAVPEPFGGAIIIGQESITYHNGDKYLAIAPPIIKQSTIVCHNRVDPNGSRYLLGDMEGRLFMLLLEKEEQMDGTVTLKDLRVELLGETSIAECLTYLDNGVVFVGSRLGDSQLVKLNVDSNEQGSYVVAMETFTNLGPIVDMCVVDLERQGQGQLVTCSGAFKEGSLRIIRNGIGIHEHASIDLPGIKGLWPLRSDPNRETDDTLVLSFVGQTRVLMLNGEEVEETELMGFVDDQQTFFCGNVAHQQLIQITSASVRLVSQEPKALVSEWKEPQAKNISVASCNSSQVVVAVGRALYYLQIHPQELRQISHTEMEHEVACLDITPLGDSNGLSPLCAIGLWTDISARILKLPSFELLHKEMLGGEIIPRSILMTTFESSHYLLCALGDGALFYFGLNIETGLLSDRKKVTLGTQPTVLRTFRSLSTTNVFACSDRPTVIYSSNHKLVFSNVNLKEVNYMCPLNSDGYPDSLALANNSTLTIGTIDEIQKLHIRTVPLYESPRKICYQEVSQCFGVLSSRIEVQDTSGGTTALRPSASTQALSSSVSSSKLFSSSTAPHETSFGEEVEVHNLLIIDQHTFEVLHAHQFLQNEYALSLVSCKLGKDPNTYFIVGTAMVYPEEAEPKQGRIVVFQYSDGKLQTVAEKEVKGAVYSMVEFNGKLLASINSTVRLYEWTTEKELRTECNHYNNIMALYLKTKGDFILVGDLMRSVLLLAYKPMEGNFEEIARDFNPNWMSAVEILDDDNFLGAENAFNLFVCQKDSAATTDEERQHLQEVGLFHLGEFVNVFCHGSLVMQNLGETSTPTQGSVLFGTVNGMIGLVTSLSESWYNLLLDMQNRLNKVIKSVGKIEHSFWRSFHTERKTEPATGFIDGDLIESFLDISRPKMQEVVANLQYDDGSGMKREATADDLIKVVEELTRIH
SMILES,EC50 (CRBN-DDB1) [nM],"EC50 (CRBN-DDB1; HTRF class, Cereblon binding) [nM]",Dmax (NEK7; read-out: NEK7 NanoBiT Dmax) [%],Dmax (NEK7; [1]) [%],DC50 (NEK7; read-out: NEK7 NanoBiT DC50) [nM],DC50 (NEK7; [2]) [nM]
Cc1ccc(C(C)(C)C(=O)NCc2cc(Cl)c(C3CCC(=O)NC3=O)c(Cl)c2)nc1 (stereo not drawn) [Compound 89],120,100 to 1000,92,> 75,6,≤ 100
CC(C)(C(=O)NCc1cc(Cl)c(C2CCC(=O)NC2=O)c(Cl)c1)c1ccnc(C#N)c1 (stereo not drawn) [Compound 92],180,100 to 1000,71,50 to 75,65,≤ 100
COc1cc(C(C)(C)C(=O)NCc2cc(Cl)c(C3CCC(=O)NC3=O)c(Cl)c2)ccn1 (stereo not drawn) [Compound 98],110,100 to 1000,95,> 75,3,≤ 100
CC(C)(C(=O)NCc1cc(Cl)c(C2CCC(=O)NC2=O)c(Cl)c1)c1cccnc1 (stereo not drawn) [Compound 99],80,≤ 100,87,> 75,8,≤ 100
CC(C)(C(=O)NCc1ccc(C2CCC(=O)NC2=O)c(Cl)c1)c1ccccc1 (stereo not drawn) [Compound 103],180,100 to 1000,89,> 75,20,≤ 100
CC(C)(C(=O)NCc1cc(F)c(C2CCC(=O)NC2=O)c(Cl)c1)c1ccncc1 (stereo not drawn) [Compound 106],240,100 to 1000,80,> 75,26,≤ 100
"Cc1cc(CNC(=O)C(C)(C)c2ccncc2)cc(Cl)c1C1CCC(=O)NC1=O (stereo not drawn) [Compound 107, N-(3-chloro-4-(2,6-dioxopiperidin-3-yl)-5-methylbenzyl)-2-methyl-2-(pyridin-4-yl)propanamide]",440,100 to 1000,82,> 75,28,≤ 100
CC(C)(C(=O)NCc1ccc(C2CCC(=O)NC2=O)c(Cl)c1)c1ccncc1 (stereo not drawn) [Compound 109],480,100 to 1000,69,50 to 75,250,100 to 1000
"CC(C)(C(=O)NCc1cc(Cl)c(C2CCC(=O)NC2=O)c(Cl)c1)c1ccno1 (stereo not drawn) [Compound 120, N-(3,5-dichloro-4-(2,6-dioxopiperidin-3-yl)benzyl)-2-(isoxazol-5-yl)-2-methylpropanamide]",100,≤ 100,68,50 to 75,61,≤ 100
CC(C)(C(=O)NCc1cc(Cl)c(C2CCC(=O)NC2=O)c(Cl)c1)c1ccon1 (stereo not drawn) [Compound 121],290,100 to 1000,80,> 75,30,≤ 100
CC(C)(C(=O)NCc1cc(Cl)c(C2CCC(=O)NC2=O)c(Cl)c1)c1cnco1 (stereo not drawn) [Compound 122],230,100 to 1000,73,50 to 75,56,≤ 100
Cn1cncc1C(C)(C)C(=O)NCc1cc(Cl)c(C2CCC(=O)NC2=O)c(Cl)c1 (stereo not drawn) [Compound 123],610,100 to 1000,70,50 to 75,100,100 to 1000
CC(C)(C(=O)NCc1cc(Cl)c(C2CCC(=O)NC2=O)c(Cl)c1)c1ncco1 (stereo not drawn) [Compound 124],140,100 to 1000,73,50 to 75,78,≤ 100
CC(C)(C(=O)NCc1cc(Cl)c(C2CCC(=O)NC2=O)c(Cl)c1)c1ccns1 (stereo not drawn) [Compound 125],70,≤ 100,71,50 to 75,54,≤ 100
O=C1CCC(c2c(Cl)cc(CNC(=O)C3(c4ccccc4)COC3)cc2Cl)C(=O)N1 (stereo not drawn) [Compound 129],90,≤ 100,90,> 75,22,≤ 100
"Cn1ncc2ccc(C3(C(=O)NCc4cc(Cl)c(C5CCC(=O)NC5=O)c(Cl)c4)CC(=O)C3)cc21 (stereo not drawn) [Compound 134, N-(3,5-dichloro-4-(2,6-dioxopiperidin-3-yl)benzyl)-1-(1-methyl-1H-indazol-6-yl)-3-oxocyclobutane-1-carboxamide]",70,≤ 100,93,> 75,2,≤ 100
"CN1CCC(C(=O)NCc2cc(Cl)c(C3CCC(=O)NC3=O)c(Cl)c2)(c2ccc(F)cc2)CC1 (stereo not drawn) [Compound 135, N-(3,5-dichloro-4-(2,6-dioxopiperidin-3-yl)benzyl)-4-(4-fluorophenyl)-1-methylpiperidine-4-carboxamide formate]",20,≤ 100,71,50 to 75,16,≤ 100
"O=C1CCC(c2c(Cl)cc(CNC(=O)C3(c4ccnc(F)c4)CC(F)(F)C3)cc2Cl)C(=O)N1 (stereo not drawn) [Compound 136, N-(3,5-dichloro-4-(2,6-dioxopiperidin-3-yl)benzyl)-3,3-difluoro-1-(2-fluoropyridin-4-yl)cyclobutane-1-carboxamide]",60,≤ 100,65,50 to 75,63,≤ 100
O=C1CCC(c2ccc(CNC(=O)C3(c4ccc(F)cc4)CCOCC3)cc2Cl)C(=O)N1 (stereo not drawn) [Compound 138],180,100 to 1000,88,> 75,26,≤ 100

# Continued, values first:
EC50 (CRBN-DDB1) [nM],"EC50 (CRBN-DDB1; HTRF class, Cereblon binding) [nM]",Dmax (NEK7; read-out: NEK7 NanoBiT Dmax) [%],Dmax (NEK7; [1]) [%],DC50 (NEK7; read-out: NEK7 NanoBiT DC50) [nM],DC50 (NEK7; [2]) [nM],SMILES
50,≤ 100,94,> 75,4,≤ 100,Cn1ccc2cc(C(C)(C)C(=O)NCc3cc(Cl)c(C4CCC(=O)NC4=O)c(Cl)c3)ccc21 (stereo not drawn) [Compound 90]
40,≤ 100,97,> 75,0.4,≤ 100,CC(C)(C(=O)NCc1cc(Cl)c(C2CCC(=O)NC2=O)c(Cl)c1)c1ccc2[nH]ccc2c1 (stereo not drawn) [Compound 91]
50,≤ 100,94,> 75,3,≤ 100,"CC(C)(C(=O)NCc1cc(Cl)c(C2CCC(=O)NC2=O)c(Cl)c1)c1ccsc1 (stereo not drawn) [Compound 126, N-(3,5-dichloro-4-(2,6-dioxopiperidin-3-yl)benzyl)-2-methyl-2-(thiophen-3-yl)propanamide]"
40,≤ 100,90,> 75,5,≤ 100,"O=C1CCC(c2c(Cl)cc(CNC(=O)C3(c4ccccc4)CCOC3)cc2Cl)C(=O)N1 (stereo not drawn) [Compound 127, N-(3,5-dichloro-4-(2,6-dioxopiperidin-3-yl)benzyl)-3-phenyltetrahydrofuran-3-carboxamide]"
40,≤ 100,95,> 75,8,≤ 100,"O=C1CCC(c2c(Cl)cc(CNC(=O)C3(c4ccccc4)CCOCC3)cc2Cl)C(=O)N1 (stereo not drawn) [Compound 128, N-(3,5-dichloro-4-(2,6-dioxopiperidin-3-yl)benzyl)-4-phenyltetrahydro-2H-pyran-4-carboxamide]"
40,≤ 100,96,> 75,2,≤ 100,"O=C1CCC(c2c(Cl)cc(CNC(=O)C3(c4ccccc4)CCC3)cc2Cl)C(=O)N1 (stereo not drawn) [Compound 130, N-(3,5-dichloro-4-(2,6-dioxopiperidin-3-yl)benzyl)-1-phenylcyclobutane-1-carboxamide]"
20,≤ 100,96,> 75,1,≤ 100,"O=C1CCC(c2c(Cl)cc(CNC(=O)C3(c4ccc5cn[nH]c5c4)CCOCC3)cc2Cl)C(=O)N1 (stereo not drawn) [Compound 131, N-(3,5-dichloro-4-(2,6-dioxopiperidin-3-yl)benzyl)-4-(1H-indazol-6-yl)tetrahydro-2H-pyran-4-carboxamide]"
50,≤ 100,92,> 75,5,≤ 100,"O=C1CCC(c2c(Cl)cc(CNC(=O)C3(c4ccc5[nH]ncc5c4)CCOCC3)cc2Cl)C(=O)N1 (stereo not drawn) [Compound 132, N-(3,5-dichloro-4-(2,6-dioxopiperidin-3-yl)benzyl)-4-(1H-indazol-5-yl)tetrahydro-2H-pyran-4-carboxamide]"
30,≤ 100,94,> 75,2,≤ 100,Cn1ncc2ccc(C3(C(=O)NCc4cc(Cl)c(C5CCC(=O)NC5=O)c(Cl)c4)CCOCC3)cc21 (stereo not drawn) [Compound 133]
50,≤ 100,97,> 75,1,≤ 100,"O=C1CC(C(=O)NCc2cc(Cl)c(C3CCC(=O)NC3=O)c(Cl)c2)(c2ccc(F)cc2)C1 (stereo not drawn) [Compound 137, N-(3,5-dichloro-4-(2,6-dioxopiperidin-3-yl)benzyl)-1-(4-fluorophenyl)-3-oxocyclobutane-1-carboxamide]"
